Data on one compound can be found in ChEMBL document CHEMBL1140941 (J Med Chem, 2009).

One may read the Tmax as the time from dosing to the highest level. Usually AUC(0-t) stands for the area under the concentration-time curve up to a stated or last time point. As usually defined, the inhibition is the drop in the measured response relative to a control, in per cent. The term IC50 denotes the concentration that gives 50% inhibition.

The subject of data set [1] is Mus musculus. As to the kind of experiment: Reduction of plasma total cholesterol level in C57BL/6 mouse at 10 mg/kg, po administered for 7 days measured after 3 hrs. Format: ADME, organism-based. Further details: dose 10 mg/kg, route oral. The conditions noted are these: in vivo.
Data set [2] is described as follows: Tmax in CD rat at 3 mg/kg, iv. Format: ADME, organism-based. Further details: dose 3 mg/kg, route intravenous. The conditions noted are these: in vivo.
The nature of data set [3]: AUC (0 to t) in CD rat at 3 mg/kg, iv. Format: ADME, organism-based. Further details: dose 3 mg/kg, route intravenous. The conditions noted are these: plasma.
Data set [4] has as its target T1, Estrogen receptor (Homo sapiens) (UniProt P03372).
T1 sequence (whole entry): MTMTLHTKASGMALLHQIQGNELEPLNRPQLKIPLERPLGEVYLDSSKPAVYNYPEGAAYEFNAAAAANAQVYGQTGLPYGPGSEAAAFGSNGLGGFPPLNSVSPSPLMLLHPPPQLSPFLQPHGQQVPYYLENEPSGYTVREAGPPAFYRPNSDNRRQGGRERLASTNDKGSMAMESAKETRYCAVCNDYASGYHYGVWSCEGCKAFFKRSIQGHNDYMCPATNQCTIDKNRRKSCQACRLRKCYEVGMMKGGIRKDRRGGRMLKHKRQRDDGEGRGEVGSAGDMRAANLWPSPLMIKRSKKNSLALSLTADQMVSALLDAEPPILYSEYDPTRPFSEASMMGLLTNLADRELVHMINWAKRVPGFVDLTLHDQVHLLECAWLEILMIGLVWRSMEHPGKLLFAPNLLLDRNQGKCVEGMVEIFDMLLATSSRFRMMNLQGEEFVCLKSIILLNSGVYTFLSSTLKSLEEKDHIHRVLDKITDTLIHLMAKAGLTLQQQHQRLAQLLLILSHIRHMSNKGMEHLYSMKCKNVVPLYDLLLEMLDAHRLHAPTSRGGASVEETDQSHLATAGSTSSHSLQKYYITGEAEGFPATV
As to the kind of experiment: Antagonist activity at gal-ERalpha expressed in african green monkey CV1 cells co-expressing MH100 at 10 uM by luciferase reporter gene assay. Format: functional, cell-based. The conditions noted are these: CV-1.

Data set [5] concerns the target Mineralocorticoid receptor (Homo sapiens, UniProt P08235). As to the kind of experiment: Antagonist activity at gal-MR expressed in african green monkey CV1 cells co-expressing MH100 by luciferase reporter gene assay. Format: functional, cell-based, CV-1.
The target in data set [6] is Oxysterols receptor LXR-alpha (Homo sapiens) (UniProt Q13133). Briefly: Agonist activity at LXRalpha expressed in african green monkey CV1 cells co-expressing LXRE up to 10 uM by luciferase reporter gene assay relative to control. Format: functional, cell-based. The following applies: CV-1. For orientation: A reporter such as luciferase makes a cellular process visible.
Chain of Oxysterols receptor LXR-alpha (Homo sapiens) (Q13133 whole entry): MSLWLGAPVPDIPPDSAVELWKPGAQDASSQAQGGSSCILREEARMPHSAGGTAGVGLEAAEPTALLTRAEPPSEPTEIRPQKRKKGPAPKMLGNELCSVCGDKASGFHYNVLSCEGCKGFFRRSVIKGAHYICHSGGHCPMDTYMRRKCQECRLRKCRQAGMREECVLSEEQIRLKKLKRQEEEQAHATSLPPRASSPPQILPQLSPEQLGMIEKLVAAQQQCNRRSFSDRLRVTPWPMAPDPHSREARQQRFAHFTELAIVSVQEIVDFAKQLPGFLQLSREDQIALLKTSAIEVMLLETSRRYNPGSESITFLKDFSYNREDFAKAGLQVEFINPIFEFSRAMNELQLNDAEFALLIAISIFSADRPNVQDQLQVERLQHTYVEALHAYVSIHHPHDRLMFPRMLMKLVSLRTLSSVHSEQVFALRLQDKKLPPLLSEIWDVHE

In data set [7] the target is T2, Androgen receptor (Homo sapiens) (UniProt P10275).
T2 sequence (whole entry): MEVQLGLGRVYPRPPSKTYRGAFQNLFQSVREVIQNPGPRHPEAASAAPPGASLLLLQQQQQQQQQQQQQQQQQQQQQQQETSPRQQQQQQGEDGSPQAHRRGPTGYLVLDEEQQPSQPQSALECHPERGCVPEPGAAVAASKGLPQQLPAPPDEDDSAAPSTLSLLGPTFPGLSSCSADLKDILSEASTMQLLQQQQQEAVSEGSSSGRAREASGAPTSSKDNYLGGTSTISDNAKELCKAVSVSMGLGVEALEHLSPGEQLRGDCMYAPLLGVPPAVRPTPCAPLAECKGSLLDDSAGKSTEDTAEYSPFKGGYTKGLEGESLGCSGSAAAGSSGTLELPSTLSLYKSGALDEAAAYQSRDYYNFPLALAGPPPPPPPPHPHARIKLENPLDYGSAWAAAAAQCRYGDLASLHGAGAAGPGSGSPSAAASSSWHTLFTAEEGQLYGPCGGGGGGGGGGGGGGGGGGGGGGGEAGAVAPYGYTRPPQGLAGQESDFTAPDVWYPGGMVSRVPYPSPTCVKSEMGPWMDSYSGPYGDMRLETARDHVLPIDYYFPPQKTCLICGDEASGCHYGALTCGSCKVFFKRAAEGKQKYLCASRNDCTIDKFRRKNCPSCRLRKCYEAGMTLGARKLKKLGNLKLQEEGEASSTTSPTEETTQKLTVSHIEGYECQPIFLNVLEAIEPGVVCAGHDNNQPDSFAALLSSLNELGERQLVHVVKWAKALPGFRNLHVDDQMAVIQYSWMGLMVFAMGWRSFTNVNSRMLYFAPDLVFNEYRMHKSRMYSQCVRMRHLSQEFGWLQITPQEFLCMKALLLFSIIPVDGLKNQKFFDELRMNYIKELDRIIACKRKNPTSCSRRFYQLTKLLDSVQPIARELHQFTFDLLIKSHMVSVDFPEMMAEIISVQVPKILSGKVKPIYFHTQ
As to the kind of experiment: Antagonist activity at gal-AR expressed in african green monkey CV1 cells co-expressing MH100 with GRIP1 co-factor at 10 uM by luciferase reporter gene assay. Format: functional, cell-based. The following applies: CV-1.

Data set [8] concerns Mus musculus. Briefly: Inhibition of preatherosclerotic lesion in LDLR knockout mouse model at 1 mg/kg, po administered for 6 weeks by en-face analysis. Format: functional. Further details: scale not given: the % may be the effect or the level left.
Data set [9] relates to Mus musculus. As to the kind of experiment: Reduction of plasma triglyceride level in western diet-induced hyperlipidemia LDLR knockout mouse model at 3 mg/kg, po administered for 6 weeks. Further details: scale not given: the % may be the effect or the level left. Format: functional.
The target in data set [10] is T3, Peroxisome proliferator-activated receptor gamma (Homo sapiens) (UniProt P37231).
T3 sequence (whole entry): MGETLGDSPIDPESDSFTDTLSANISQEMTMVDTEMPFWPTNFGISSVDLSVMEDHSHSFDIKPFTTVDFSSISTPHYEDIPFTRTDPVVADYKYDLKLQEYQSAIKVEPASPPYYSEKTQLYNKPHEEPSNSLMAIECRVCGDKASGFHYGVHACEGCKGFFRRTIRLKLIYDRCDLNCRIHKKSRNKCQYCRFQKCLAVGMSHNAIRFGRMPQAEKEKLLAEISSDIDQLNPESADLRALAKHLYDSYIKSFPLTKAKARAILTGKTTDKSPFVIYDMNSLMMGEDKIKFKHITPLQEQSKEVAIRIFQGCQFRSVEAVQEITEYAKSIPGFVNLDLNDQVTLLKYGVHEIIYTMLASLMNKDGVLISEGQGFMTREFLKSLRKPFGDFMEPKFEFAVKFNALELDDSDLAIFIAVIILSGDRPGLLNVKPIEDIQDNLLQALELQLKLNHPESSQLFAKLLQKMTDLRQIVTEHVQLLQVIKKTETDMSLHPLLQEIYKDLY
Briefly: Agonist activity at PPARgamma expressed in african green monkey CV1 cells co-expressing PPRE by luciferase reporter gene assay. The conditions noted are these: CV-1. Format: functional, cell-based.

Data set [11] has as its target Steroid hormone receptor ERR2 (Homo sapiens) (UniProt O95718). As to the kind of experiment: Antagonist activity at ERRbeta expressed in african green monkey CV1 cells by luciferase reporter gene assay. Format: functional, cell-based. The conditions noted are these: CV-1.
The nature of data set [12]: Tmax in CD rat at 3 mg/kg, po. Format: ADME, organism-based. Further details: dose 3 mg/kg, route oral. The following applies: in vivo.
For data set [13], the target named is T3, Peroxisome proliferator-activated receptor gamma (Homo sapiens). As to the kind of experiment: Agonist activity at PPARgamma expressed in african green monkey CV1 cells co-expressing PPRE up to 10 uM by luciferase reporter gene assay relative to control. The conditions noted are these: CV-1. Format: functional, cell-based.

The source made the active and inactive calls. No cut-off for these calls is given here.

Chain of Steroid hormone receptor ERR2 (Homo sapiens) (O95718 whole entry): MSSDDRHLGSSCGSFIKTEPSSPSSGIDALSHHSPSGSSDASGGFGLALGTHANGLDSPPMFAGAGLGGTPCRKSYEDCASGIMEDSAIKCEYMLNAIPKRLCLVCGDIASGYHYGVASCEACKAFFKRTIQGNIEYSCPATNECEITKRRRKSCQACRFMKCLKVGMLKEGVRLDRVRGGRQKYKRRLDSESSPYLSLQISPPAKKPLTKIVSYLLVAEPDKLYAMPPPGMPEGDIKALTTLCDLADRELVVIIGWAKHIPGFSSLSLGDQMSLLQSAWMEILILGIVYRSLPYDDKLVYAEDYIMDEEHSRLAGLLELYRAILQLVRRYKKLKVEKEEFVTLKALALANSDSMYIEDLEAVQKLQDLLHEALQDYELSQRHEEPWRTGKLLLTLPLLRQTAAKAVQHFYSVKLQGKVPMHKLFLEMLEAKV
Chain of Mineralocorticoid receptor (P08235 whole entry): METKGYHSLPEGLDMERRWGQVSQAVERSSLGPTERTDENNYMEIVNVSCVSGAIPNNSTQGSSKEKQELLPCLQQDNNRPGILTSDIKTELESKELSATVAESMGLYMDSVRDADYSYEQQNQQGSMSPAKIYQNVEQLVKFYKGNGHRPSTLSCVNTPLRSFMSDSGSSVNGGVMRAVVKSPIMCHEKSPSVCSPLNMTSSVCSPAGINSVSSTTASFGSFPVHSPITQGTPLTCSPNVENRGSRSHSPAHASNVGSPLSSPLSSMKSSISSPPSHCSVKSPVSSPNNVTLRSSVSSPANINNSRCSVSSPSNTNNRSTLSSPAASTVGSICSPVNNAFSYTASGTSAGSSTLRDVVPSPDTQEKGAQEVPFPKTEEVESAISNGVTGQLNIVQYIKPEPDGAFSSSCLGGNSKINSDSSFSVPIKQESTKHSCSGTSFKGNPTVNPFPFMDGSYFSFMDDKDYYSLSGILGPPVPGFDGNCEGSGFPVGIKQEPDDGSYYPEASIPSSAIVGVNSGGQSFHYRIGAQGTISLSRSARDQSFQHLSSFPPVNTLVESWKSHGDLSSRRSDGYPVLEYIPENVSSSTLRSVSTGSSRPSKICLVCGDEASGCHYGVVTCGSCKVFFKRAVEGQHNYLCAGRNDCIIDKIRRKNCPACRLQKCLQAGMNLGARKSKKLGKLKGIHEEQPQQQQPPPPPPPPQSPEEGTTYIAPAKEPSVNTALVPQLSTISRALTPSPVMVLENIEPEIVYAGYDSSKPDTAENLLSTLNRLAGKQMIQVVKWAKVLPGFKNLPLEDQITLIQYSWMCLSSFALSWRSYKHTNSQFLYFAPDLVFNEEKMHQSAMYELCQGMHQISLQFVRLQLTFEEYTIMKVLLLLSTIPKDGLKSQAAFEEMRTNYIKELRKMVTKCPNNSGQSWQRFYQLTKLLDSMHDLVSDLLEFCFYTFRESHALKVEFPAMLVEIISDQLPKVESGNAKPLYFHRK

For the compound `CC(C)OC(=O)C1=CN(C(=O)c2ccc(F)c(F)c2)CC(C)(C)c2c1[nH]c1ccccc21` [TUROFEXORATE ISOPROPYL], the Activity in the data set on Mus musculus [1] turned out to be 78.1 mg/dL; in the data set on Mus musculus [8], 18%; with Mus musculus [9] it was 39%. Moreover, the figures for the time to peak (Tmax) in data set [2] and in [12] were 1.2 min and 10 h, respectively. Moreover, in [3], the AUC(0-t) turned out to be 19.1 µM·h. The inhibition turned out to be 24% in data set [4] and 26% in data set [7]. This compound showed a concentration for half-maximal inhibition (IC50) in data set [5] of 10 µM. For the same compound, the outcome in [6], in data set [10], in data set [11] and in [13] was inactive.
